Reference: US20240398771A1, “TREATMENT OF SCLERODERMA AND RAYNAUD'S SYNDROME” (Aisa Pharma, Inc., priority 2023, published 2024)

What was measured:
participants with SSc-RP [1] = test: Average severity (0-10) of weekly symptomatic RP attacks; format: in vivo, human; conditions: Example 3
Description: (§1) The relevant metrics measured by this tool daily are: • Study medication • SSc-RP symptoms (Reporting an attack including duration of attack) • Severity of the attack considering all symptoms of the attack e.g. tingling, numbness, pain, color changes (VAS 0-10 cm scale) • Participant's location at the time of the attack (inside home/outside home) • Selecting symptoms experienced during the attack (tingling, numbness, pain, color changes, other) • Pain rating during the attack (11-point Likert scale) • The RCS based on how much difficulty participants had with Raynaud's today, how many attacks the participant had, and how long they lasted. Participants will also be asked to consider how much pain, numbness, or other symptoms the Raynaud's caused in fingers (including painful sores), and how much the Raynaud's alone affected the use of hands today (VAS 0-10 cm scale).
The absolute change in average severity of weekly RP attacks (VAS 0-10 cm scale) from baseline to the end of each Dosing Period was and will be a secondary outcome variable. The sponsor-developed participant-informed diary will be used to record data. Average severity of weekly RP attacks is defined as the total severity scores of RP attacks divided by total number of RP attacks within the last 7 days of each dosing period. […] The variable will be calculated similar to frequency data as before.

participants with SSc-RP [2] = test: SHAQ Standard Disability Index; format: in vivo, human; conditions: Example 4, mITT Part A
Description: The standard, validated, patient reported outcome measures tool for SSc patients, the SHAQ, will be collected at the time points specified in the study schedules (FIG. 2 and FIG. 3A and/or FIG. 3B). To assess the participant's quality of life. The SHAQ includes a Raynaud's VAS that will also be reported separately.
The standard, validated, patient reported outcome measures tool for SSc patients, the Scleroderma Health Assessment Questionnaire (SHAQ), will be used to assess the participant qualify of life. Details are attached in the Appendix. The participant quality of life will be scored, and a disability index calculated for each questionnaire completed by the patient at Screening and each in-clinic visit. The absolute change in participant quality of life from baseline to the end of each dosing period will be calculated similar to frequency data as before.
The SHAQ is used to calculate a Disability Index to assess the participant qualify of life. The eight categories assessed by the Disability Index are 1) dressing and grooming, 2) arising, 3) eating, 4) walking, 5) hygiene, 6) reach, 7) grip, and 8) common daily activities. For each of these categories, patients report the amount of difficulty they have in performing two or three specific activities. […]

[3] = 10 mg, single oral dose, healthy volunteers; cited from earlier work
participants with SSc-RP [4] = test: Pain score (11-point Likert scale) recorded during weekly RP attacks; format: in vivo, human; conditions: Tadalafil 5 mg (n = 4); Raynaud's pain, Table G
Description: as §1
The absolute change in highest pain score (11-point Likert scale) of weekly RP attacks from baseline to the end of each dosing period will be a secondary outcome variable. […] The variable will be calculated similar to frequency data as before.
The absolute change in average pain score (11-point Likert scale) of weekly RP attacks from baseline to the end of each Dosing Period will be a secondary outcome variable. […] The variable will be calculated similar to frequency data as before.

Compound	severity of attacks as reported by patients, comparison in words (participants with SSc-RP [1])	patient-reported SSc disease disability compared to placebo (participants with SSc-RP [2])	CL/F, Mean [3] [L/h]	Baseline Average Pain Score [Mean (SD)] (participants with SSc-RP [4])
COCCOC(=O)C1=C(C)NC(C)=C(C(=O)OC/C=C/c2ccccc2)C1c1cccc([N+](=O)[O-])c1 (stereo not shown) [Cilnidipine, 1,4-dihydro-2,6-dimethyl,4-(3-nitrophenyl)-3,5-pyridinedicarboxylic acid 2-methoxyethyl (2 E)-3-phenyl-2-propenyl ester]	20 mg reducing severity more than 10 mg	may reduce	304.7	
CN1CC(=O)N2[C@H](c3ccc4c(c3)OCO4)c3[nH]c4ccccc4c3C[C@@H]2C1=O [Tadalafil]				5.47 (3.586)
